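96-well plates; 48 h exposure; 5 concentrations. Endpoints by linear interpolation between flanking doses. Not reached: highest tested concentration assigned. GI50 = concentration required for 50% inhibition of growth.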 The source made the active and inactive calls. Rule as the data show it: active = GI50 up to about 1.1 µM and inactive = higher.
Key:
Assay in all cases: growth of human tumour cells (NCI), 48 h
RXF 631 = system: RXF 631
SK-MEL-28 = system: SK-MEL-28
786-0 = system: 786-0
SW-620 = system: SW-620
DMS-273 = system: DMS-273
M14 = system: M14
SF-295 = system: SF-295
HOP-62 = system: HOP-62
SNB-75 = system: SNB-75
HOP-18 = system: HOP-18
SNB-19 = system: SNB-19
CAKI-1 = system: CAKI-1
DMS-114 = system: DMS-114
A549 = system: A549
SF-268 = system: SF-268
CCRF-CEM = system: CCRF-CEM
COLO 205 = system: COLO 205
SK-MEL-5 = system: SK-MEL-5
HT-29 = system: HT-29
RPMI-8226 = system: RPMI-8226
RXF 393 = system: RXF 393
SNB-78 = system: SNB-78
EKVX = system: EKVX
NCI-H522 = system: NCI-H522
NCI-H460 = system: NCI-H460
TK-10 = system: TK-10
U-251 = system: U-251
K562 = system: K562
NCI-H23 = system: NCI-H23
A498 = system: A498
OVCAR-3 = system: OVCAR-3
OVCAR-8 = system: OVCAR-8
HL-60 = system: HL-60
XF498 = system: XF498
OVCAR-5 = system: OVCAR-5
KM12 = system: KM12
OVCAR-4 = system: OVCAR-4
LOX IMVI = system: LOX IMVI
HCC 2998 = system: HCC 2998
SK-OV-3 = system: SK-OV-3
HOP-92 = system: HOP-92
NCI-H226 = system: NCI-H226
HCT-15 = system: HCT-15
SK-MEL-2 = system: SK-MEL-2
DLD-1 = system: DLD-1
Malme-3M = system: Malme-3M
ACHN = system: ACHN
SF-539 = system: SF-539
UACC-257 = system: UACC-257
SN12C = system: SN12C
LXFL 529 = system: LXFL 529
UACC-62 = system: UACC-62
IGROV-1 = system: IGROV-1
HCT-116 = system: HCT-116
KM-20L2 = system: KM-20L2
UO-31 = system: UO-31
M19-MEL = system: M19-MEL
MOLT-4 = system: MOLT-4

COc1ccccc1CC(C)N (centres undefined)
GI50 (RXF 631): > 100 µM (inactive) | GI50 (SK-MEL-28): > 100 µM (inactive) | GI50 (786-0): > 100 µM (inactive) | GI50 (SW-620): > 100 µM (inactive) | GI50 (DMS-273): > 100 µM (inactive) | GI50 (M14): > 100 µM (inactive) | GI50 (SF-295): > 100 µM (inactive) | GI50 (HOP-62): > 100 µM (inactive) | GI50 (SNB-75): > 100 µM (inactive) | GI50 (HOP-18): > 100 µM (inactive) | GI50 (SNB-19): > 100 µM (inactive) | GI50 (CAKI-1): > 100 µM (inactive) | GI50 (DMS-114): > 100 µM (inactive) | GI50 (A549): > 100 µM (inactive) | GI50 (SF-268): > 100 µM (inactive) | GI50 (CCRF-CEM): > 100 µM (inactive) | GI50 (COLO 205): > 100 µM (inactive) | GI50 (SK-MEL-5): > 100 µM (inactive) | GI50 (HT-29): > 100 µM (inactive) | GI50 (RPMI-8226): > 100 µM (inactive) | GI50 (RXF 393): > 100 µM (inactive) | GI50 (SNB-78): > 100 µM (inactive) | GI50 (EKVX): > 100 µM (inactive) | GI50 (NCI-H522): > 100 µM (inactive) | GI50 (NCI-H460): > 100 µM (inactive) | GI50 (TK-10): > 100 µM (inactive) | GI50 (U-251): > 100 µM (inactive) | GI50 (K562): > 100 µM (inactive) | GI50 (NCI-H23): > 100 µM (inactive) | GI50 (A498): > 100 µM (inactive) | GI50 (OVCAR-3): > 100 µM (inactive) | GI50 (OVCAR-8): > 100 µM (inactive) | GI50 (HL-60): > 100 µM (inactive) | GI50 (XF498): > 100 µM (inactive) | GI50 (OVCAR-5): > 100 µM (inactive) | GI50 (KM12): > 100 µM (inactive) | GI50 (OVCAR-4): > 100 µM (inactive) | GI50 (LOX IMVI): > 100 µM (inactive) | GI50 (HCC 2998): > 100 µM (inactive) | GI50 (SK-OV-3): > 100 µM (inactive) | GI50 (HOP-92): > 100 µM (inactive) | GI50 (NCI-H226): > 100 µM (inactive) | GI50 (HCT-15): > 100 µM | GI50 (SK-MEL-2): > 100 µM (inactive) | GI50 (DLD-1): > 100 µM (inactive) | GI50 (Malme-3M): > 100 µM (inactive) | GI50 (ACHN): > 100 µM (inactive) | GI50 (SF-539): > 100 µM (inactive) | GI50 (UACC-257): > 100 µM (inactive) | GI50 (SN12C): > 100 µM (inactive) | GI50 (LXFL 529): > 100 µM (inactive) | GI50 (UACC-62): > 100 µM (inactive) | GI50 (IGROV-1): > 100 µM (inactive) | GI50 (HCT-116): > 100 µM (inactive) | GI50 (KM-20L2): > 100 µM (inactive) | GI50 (UO-31): > 100 µM (inactive)

CC(=O)CCC1(c2ccccc2)OC(=O)C(C#N)=C1c1ccccc1 (centres undefined)
GI50 (RXF 631): > 100 µM (inactive) | GI50 (SK-MEL-28): > 100 µM (inactive) | GI50 (786-0): > 100 µM (inactive) | GI50 (SW-620): > 100 µM (inactive) | GI50 (DMS-273): > 100 µM (inactive) | GI50 (M14): > 100 µM (inactive) | GI50 (SF-295): > 100 µM (inactive) | GI50 (HOP-62): > 100 µM (inactive) | GI50 (SNB-75): 29.4 µM (inactive) | GI50 (M19-MEL): > 100 µM (inactive) | GI50 (SNB-19): > 100 µM (inactive) | GI50 (DMS-114): > 100 µM (inactive) | GI50 (A549): > 100 µM (inactive) | GI50 (SF-268): 70 µM (inactive) | GI50 (CCRF-CEM): 43.5 µM (inactive) | GI50 (COLO 205): > 100 µM (inactive) | GI50 (SK-MEL-5): > 100 µM (inactive) | GI50 (HT-29): > 100 µM (inactive) | GI50 (RPMI-8226): 39.8 µM (inactive) | GI50 (SNB-78): > 100 µM (inactive) | GI50 (EKVX): > 100 µM (inactive) | GI50 (NCI-H522): 1.53 µM (inactive) | GI50 (NCI-H460): > 100 µM (inactive) | GI50 (TK-10): > 100 µM (inactive) | GI50 (U-251): 88.1 µM (inactive) | GI50 (K562): 50.6 µM (inactive) | GI50 (NCI-H23): > 100 µM (inactive) | GI50 (A498): > 100 µM (inactive) | GI50 (OVCAR-3): 86.3 µM (inactive) | GI50 (OVCAR-8): > 100 µM (inactive) | GI50 (XF498): > 100 µM (inactive) | GI50 (OVCAR-5): > 100 µM (inactive) | GI50 (KM12): > 100 µM (inactive) | GI50 (OVCAR-4): 80.4 µM (inactive) | GI50 (LOX IMVI): > 100 µM (inactive) | GI50 (HCC 2998): > 100 µM (inactive) | GI50 (SK-OV-3): > 100 µM (inactive) | GI50 (HOP-92): 50 µM (inactive) | GI50 (HCT-15): > 100 µM | GI50 (MOLT-4): 33.7 µM (inactive) | GI50 (SK-MEL-2): > 100 µM (inactive) | GI50 (DLD-1): > 100 µM (inactive) | GI50 (Malme-3M): > 100 µM (inactive) | GI50 (ACHN): > 100 µM (inactive) | GI50 (SF-539): > 100 µM (inactive) | GI50 (UACC-257): > 100 µM (inactive) | GI50 (SN12C): > 100 µM (inactive) | GI50 (LXFL 529): 59.4 µM (inactive) | GI50 (UACC-62): > 100 µM (inactive) | GI50 (IGROV-1): > 100 µM (inactive) | GI50 (HCT-116): 47.6 µM (inactive) | GI50 (KM-20L2): > 100 µM (inactive) | GI50 (UO-31): 29.2 µM (inactive)

Reference: ChEMBL document CHEMBL1201862, “PubChem BioAssay data set” (2004)
